Measured values as given in patent US20240197652A1, “KETAMINE IN THE TREATMENT OF […]” (Awakn LS Europe Holdings Limited, priority 2021, published 2024).

Experiments:
Assay type in all cases: in vivo, human
[1] = system: subjects with gaming disorder; experiment: Craving for Gaming Questionnaire (CGQ), Example 9; settings: for CGQ score at 2-week follow up: after 100 mg racemic ketamine sublingual; for CGQ score, pre-administration: baseline before 100 mg racemic ketamine sublingual; for % change in Craving for Gaming Questionnaire: pre-administration to 2-week follow up, 100 mg racemic ketamine sublingual
Description: A study was completed on ketamine to treat gaming disorder. Subjects were assessed for gaming disorder using the Internet Gaming Disorder Scale (IGDS) and were included if they received an IGDS score greater than 3. Three subjects in total were included (IG1-IG3). All three were administered sublingual lozenges comprising 100 mg of racemic ketamine.
The treatment protocol commenced in the same manner as disclosed in the ketamine in subjects with gambling disorder study completed in EXAMPLE 7, with the exceptions as follow: No behavioural tasks were completed. Self-report measures completed during EXAMPLE 9 included Social Phobia Inventory (SPIN), the Craving for Gaming Questionnaire (CGQ), and Generalised Anxiety Disorder-7 (GAD-7) the Sensitivity to Reward and Punishment Scale, and the Childhood Trauma Questionnaire, the Morningness-Eveningness Questionnaire (MEQ).

[2] = system: subjects of EXAMPLES 7-10; experiment: Beck Depression Inventory (BDI), subjects of Examples 7-10; settings: for BDI Score at the one-week follow up / Depression Severity at the One Week Follow Up (BDI): after 100 mg racemic ketamine sublingual; for BDI Score pre-treatment / Depression Severity Pre-Treatment (BDI): baseline before 100 mg racemic ketamine sublingual; for % Change in BDI score: pre-treatment to one-week follow up, 100 mg racemic ketamine sublingual
Description: The study spanned a total of 30 days (not counting initial contact and prescreening). Prescreening of all subjects was conducted by phone, and subjects recorded self-report measures, including the Sensitivity to Punishment and Sensitivity to Reward Questionnaire (SPSRQ) and the Gambling Related Cognitions Questionnaire. Prior to beginning treatment, each subject completed the Beck Depression Inventory (BDI) to determine a baseline depression score. Total scores of 0-13 are minimal, 14-19 are mild, 20-28 are moderate, and 29-63 are severe (Beck, Steer, and Brown, 1996).

[3] = system: subjects with gambling disorder; experiment: Adverse events, Ketamine Side Effect Tool (KSET), Example 7; settings: five gambling disorder subjects; 100 mg racemic ketamine sublingual
Description: Adverse events were assessed with the Ketamine Side Effect Tool (KSET).

[4] = system: subjects with binge eating disorder; experiment: Binge Eating Scale (BES), Example 8; settings: for Binge Eating Scale score at 2-week follow up / BES classification at two-week follow up: after 100 mg racemic ketamine sublingual; for BES classification, pre-administration / Binge Eating Scale score, pre-administration: baseline before 100 mg racemic ketamine sublingual; for % change in Binge Eating Scale: pre-administration to 2-week follow up, 100 mg racemic ketamine sublingual
Text: Binge eating disorder may be characterised as being mild, moderate, and severe. The severity of binge eating disorder may be determined by the Binge Eating Scale (BES), wherein a score below 17 indicates no binge eating disorder, a score of between 18-20 indicates mild binge eating disorder, a score of between 21-27 indicates moderate binge eating disorder, and a score above 27 indicates severe binge eating disorder (Grupski et al., 2013), or based on ordinary skill. In embodiments, a patient may have binge eating disorder characterised as being mild. In other embodiments, a patient may have binge eating disorder characterised as being moderate. In other embodiments, a patient may have binge eating disorder characterised as being severe.
A study was completed on the use of ketamine to treat binge eating disorder. Subjects were assessed for binge eating disorder using the Binge Eating Scale (BES), and included if they received a BES score greater than 15. Three subjects in total were included (BE1-BE3, and interchangeably on FIGS. 5 and 6 as BED1-BED3, these being the same subjects). All three were administered sublingual lozenges comprising 100 mg of racemic ketamine.
The treatment protocol commenced in substantially the same way as disclosed in the ketamine in subjects with gambling disorder study completed in EXAMPLE 7, with the exceptions outlined as follows: No behavioural tasks were completed. Blood samples collected every 10 minutes from the time of administration to 90 minutes post-administration were additionally analysed for leptin and ghrelin. Self-report measures included the Binge Eating Scale, the Adult Attachment Interview (AAI), a 20 question interview about the subject's recollections of their childhood (Sykes and Turner, 2015); the Childhood Trauma Questionnaire; the Morningness-Eveningness Questionnaire (MEQ), a 19-item questionnaire designed to assess when a respondent prefers to wake up or start sleep (American Thoracic Society, 2022); the DSM-5 Binge Eating Disorder diagnostic criteria; and the SPSRQ.

[5] = subject BE1 (binge eating disorder)
[6] = subject BE2 (binge eating disorder)
[7] = subject BE3 (binge eating disorder)

## CNC1(c2ccccc2Cl)CCCCC1=O (racemic) [ketamine, 2-(2-chlorophenyl)-2-(methylamino)-cyclohexanone]
[1]; subject IG1
  CGQ score at 2-week follow up: 28
  CGQ score, pre-administration: 30
  % change in Craving for Gaming Questionnaire: −6.67%
[1]; subject IG2
  CGQ score at 2-week follow up: 15
  CGQ score, pre-administration: 31
  % change in Craving for Gaming Questionnaire: −51.61%
[1]; subject IG3
  CGQ score at 2-week follow up: 21
  CGQ score, pre-administration: 45
  % change in Craving for Gaming Questionnaire: −53.33%
[2]; [5]
  BDI Score at the one-week follow up: 2
  BDI Score pre-treatment: 9
  % Change in BDI score: −77.78%
[2]; [6]
  BDI Score at the one-week follow up: 15
  BDI Score pre-treatment: 19
  % Change in BDI score: −21.05%
[2]; [7]
  BDI Score at the one-week follow up: 1
  BDI Score pre-treatment: 21
  % Change in BDI score: −95.24%
[2]; subject BE3
  Depression Severity at the One Week Follow Up (BDI): Minimal (Total scores of 0-13 are minimal)
  Depression Severity Pre-Treatment (BDI): Moderate (20-28 are moderate)
[2]; subject CSB1 (CSBD)
  BDI Score at the one-week follow up: 9
  BDI Score pre-treatment: 24
  % Change in BDI score: −62.50%
[2]; subject CSB1
  Depression Severity at the One Week Follow Up (BDI): Minimal (Total scores of 0-13 are minimal)
  Depression Severity Pre-Treatment (BDI): Moderate (20-28 are moderate)
[2]; subject CSB2 (CSBD)
  BDI Score at the one-week follow up: 12
  BDI Score pre-treatment: 14
  % Change in BDI score: −14.29%
[2]; subject CSB2
  Depression Severity at the One Week Follow Up (BDI): Minimal (Total scores of 0-13 are minimal)
  Depression Severity Pre-Treatment (BDI): Mild (14-19 are mild)
[2]; subject CSB3 (CSBD)
  BDI Score at the one-week follow up: 7
  BDI Score pre-treatment: 19
  % Change in BDI score: −63.16%
[2]; subject CSB3
  Depression Severity at the One Week Follow Up (BDI): Minimal (Total scores of 0-13 are minimal)
  Depression Severity Pre-Treatment (BDI): Mild (14-19 are mild)
[2]; subject G1 (gambling disorder)
  BDI Score at the one-week follow up: 9
  BDI Score pre-treatment: 8
  % Change in BDI score: +12.5%
[2]; subject G2 (gambling disorder)
  BDI Score at the one-week follow up: 24
  BDI Score pre-treatment: 21
  % Change in BDI score: +14.29%
[2]; subject G3 (gambling disorder)
  BDI Score at the one-week follow up: 14
  BDI Score pre-treatment: 17
  % Change in BDI score: −17.65%
[2]; subject G4 (gambling disorder)
  BDI Score at the one-week follow up: 6
  BDI Score pre-treatment: 8
  % Change in BDI score: −25%
[2]; subject G5 (gambling disorder)
  BDI Score at the one-week follow up: 11
  BDI Score pre-treatment: 12
  % Change in BDI score: −8.33%
[2]; subject IG1 (gaming disorder)
  BDI Score at the one-week follow up: 10
  BDI Score pre-treatment: 15
  % Change in BDI score: −33.33%
[2]; subject IG1
  Depression Severity at the One Week Follow Up (BDI): Minimal (Total scores of 0-13 are minimal)
  Depression Severity Pre-Treatment (BDI): Mild (14-19 are mild)
[2]; subject IG2 (gaming disorder)
  BDI Score at the one-week follow up: 8
  BDI Score pre-treatment: 4
  % Change in BDI score: +100%
[2]; subject IG3 (gaming disorder)
  BDI Score at the one-week follow up: 9
  BDI Score pre-treatment: 10
  % Change in BDI score: −10%
[3]
  course of adverse events: All adverse events were transient, and resolved two hours post-lozenge
  overall tolerability: well-tolerated, with no drop-outs
  unexpected adverse reactions (KSET): No unexpected adverse reactions were observed
[4]; subject BE1
  Binge Eating Scale score at 2-week follow up: 24
  BES classification, pre-administration: moderate binge eating disorder (a score of between 21-27 indicates moderate binge eating disorder)
  Binge Eating Scale score, pre-administration: 26
  % change in Binge Eating Scale: −7.69%
[4]; subject BE1, moderate binge eating disorder pre-administration
  BES classification at two-week follow up: remained so
[4]; subject BE2
  Binge Eating Scale score at 2-week follow up: 35
  Binge Eating Scale score, pre-administration: 32
  % change in Binge Eating Scale: +9.38%
[4]; subject BE3
  Binge Eating Scale score at 2-week follow up: 28
  BES classification, pre-administration: severe binge eating disorder (a score above 27 indicates severe binge eating disorder)
  Binge Eating Scale score, pre-administration: 42
  % change in Binge Eating Scale: −33.33%
[4]; subject BE3, severe binge eating disorder pre-administration
  BES classification at two-week follow up: one point away from the moderate classification
